Broadly, the IC50 is the point on the concentration scale where inhibition reaches its midpoint.

SMILES strings stand for the structures.

Results on 28 molecules are retold here after US10106559B2, “Substituted tetrahydrocarbazole and carbazole carboxamide compounds” (BRISTOL-MYERS SQUIBB COMPANY, priority 2013, dated 2018).

Chain of Jak2 tyrosine kinase (O60674 whole entry): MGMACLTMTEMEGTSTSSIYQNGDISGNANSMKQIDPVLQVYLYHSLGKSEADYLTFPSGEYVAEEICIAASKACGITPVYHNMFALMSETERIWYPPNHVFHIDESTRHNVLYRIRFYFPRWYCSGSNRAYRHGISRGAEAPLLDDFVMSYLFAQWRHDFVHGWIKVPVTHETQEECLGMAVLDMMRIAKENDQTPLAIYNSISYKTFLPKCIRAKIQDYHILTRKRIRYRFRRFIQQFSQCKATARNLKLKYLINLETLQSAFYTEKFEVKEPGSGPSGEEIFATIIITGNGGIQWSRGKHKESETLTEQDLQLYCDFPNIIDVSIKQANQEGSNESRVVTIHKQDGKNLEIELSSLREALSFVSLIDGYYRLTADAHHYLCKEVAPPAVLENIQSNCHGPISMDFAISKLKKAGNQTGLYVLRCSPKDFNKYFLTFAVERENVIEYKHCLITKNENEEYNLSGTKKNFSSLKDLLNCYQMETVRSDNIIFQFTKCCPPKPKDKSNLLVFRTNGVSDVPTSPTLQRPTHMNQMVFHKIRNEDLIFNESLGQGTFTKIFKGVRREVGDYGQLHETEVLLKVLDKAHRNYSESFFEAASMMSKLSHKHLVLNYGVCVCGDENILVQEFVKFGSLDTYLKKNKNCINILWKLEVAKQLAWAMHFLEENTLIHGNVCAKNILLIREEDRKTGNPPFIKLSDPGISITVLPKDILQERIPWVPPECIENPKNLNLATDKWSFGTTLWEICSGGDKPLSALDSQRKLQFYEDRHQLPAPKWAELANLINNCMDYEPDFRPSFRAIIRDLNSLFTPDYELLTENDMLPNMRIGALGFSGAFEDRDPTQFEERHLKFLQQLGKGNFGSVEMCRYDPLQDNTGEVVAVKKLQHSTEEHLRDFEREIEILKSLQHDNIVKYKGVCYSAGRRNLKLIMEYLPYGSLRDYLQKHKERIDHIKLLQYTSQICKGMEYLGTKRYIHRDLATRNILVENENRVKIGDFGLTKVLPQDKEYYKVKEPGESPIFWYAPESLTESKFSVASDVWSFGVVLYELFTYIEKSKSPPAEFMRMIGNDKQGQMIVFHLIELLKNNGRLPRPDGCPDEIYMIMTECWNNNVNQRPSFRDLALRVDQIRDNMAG

The first test addresses Jak2 tyrosine kinase (Homo sapiens (Human), UniProt O60674). The experiment in a line: Jak2 Tyrosine Kinase Assay. In kind it is biochemical.
Settings: not given
The molecule `Cc1c(-c2c(F)cc(C(N)=O)c3[nH]c4cc(C(C)(C)O)ccc4c23)cccc1-n1c(=O)[nH]c2c(F)cc(F)cc2c1=O` (single isomer, unassigned) [Example 73] displayed an IC50 of 580 nM.

The test is the same for the next values; noted with them: Jak2 IC50 over Btk IC50; larger value = more selective for Btk.
Consider `Cc1nc(C(N)=O)c2[nH]c3cc(C(C)(C)O)ccc3c2c1-c1cccc(-n2cnc3ccccc3c2=O)c1C` [Comparative Example 76, 7-(2-Hydroxypropan-2-yl)-3-methyl-4-(2-methyl-3-(4-oxoquinazolin-3(4H)-yl)phenyl)-9H-pyrido[3,4-b]indole-1-carboxamide, reference compound], for which the “Ratio of Jak2/Btk IC50 values” was determined as 29.

The same test, now with this note: selectivity: Jak2 IC50 divided by Btk IC50.
Regarding `Cc1c(-c2c(F)cc(C(N)=O)c3[nH]c4c(c23)CC[C@H](C(C)(C)O)C4)cccc1-n1c(=O)c2cccc(F)c2n(C)c1=O` (atropisomer, axis not shown) [Example 28, 6-Fluoro-5-(R)-(3-(S)-(8-fluoro-1-methyl-2,4-dioxo-1,2-dihydroquinazolin-3(4H)-yl)-2-methylphenyl)-2-(S)-(2-hydroxypropan-2-yl)-2,3,4,9-tetrahydro-1H-carbazole-8-carboxamide], the “Ratio of Jak2/Btk IC50 values” amounted to 59000.

Regarding `COc1ccc2c(=O)n(-c3cccc(-c4c(Cl)cc(C(N)=O)c5[nH]c6cc(C(C)(C)O)ccc6c45)c3C)c(=O)n(C)c2c1` (single isomer, unassigned) [Example 5], the “Ratio of Jak2/Btk IC50 values” is recorded as above 950.

For `COc1ccc2c(=O)n(-c3cccc(-c4c(Cl)cc(C(N)=O)c5[nH]c6cc(C(C)(C)O)ccc6c45)c3C)c(=O)n(C)c2c1` (single isomer, unassigned) [Example 6], the “Ratio of Jak2/Btk IC50 values” is on record as 1400.

As to `Cc1c(-c2c(Cl)cc(C(N)=O)c3[nH]c4c(c23)CC[C@H](C(C)(C)O)C4)cccc1-n1c(=O)[nH]c2c(F)cc(F)cc2c1=O` (single isomer, unassigned) [Example 57], the “Ratio of Jak2/Btk IC50 values” is on record as 1100.

As to `[2H]C([2H])([2H])n1c(=O)n(-c2cccc(-c3c(F)cc(C(N)=O)c4[nH]c5c(c34)CC[C@H](C(C)(C)O)C5)c2C)c(=O)c2cccc(F)c21` (single isomer, unassigned) [Example 62], the “Ratio of Jak2/Btk IC50 values” is reported as above 4900.

For the molecule `Cc1c(-c2c(F)cc(C(N)=O)c3[nH]c4c(c23)CC[C@H](C(C)(C)O)C4)cccc1-n1c(=O)cc2c(F)cccn2c1=O` (single isomer, unassigned) [Example 69], the “Ratio of Jak2/Btk IC50 values” is reported as 11000.

For the molecule `Cc1nc(C(N)=O)c2[nH]c3cc(C(C)(C)O)ccc3c2c1-c1cccc(-n2cnc3ccccc3c2=O)c1C` [Comparative Example 76, 7-(2-Hydroxypropan-2-yl)-3-methyl-4-(2-methyl-3-(4-oxoquinazolin-3(4H)-yl)phenyl)-9H-pyrido[3,4-b]indole-1-carboxamide, reference compound], the “Ratio of Jak2/Btk IC50 values” worked out at 29.

For `Cc1c(-c2c(C#N)cc(C(N)=O)c3[nH]c4cc(C(C)(C)O)ccc4c23)cccc1-n1c(=O)c2cccc(F)c2n(C)c1=O` [Example 15, 3-Cyano-4-(S)-(3-(8-fluoro-1-methyl-2,4-dioxo-1,2-dihydroquinazolin-3(4H)-yl)-2-methylphenyl)-7-(2-hydroxypropan-2-yl)-9H-carbazole-1-carboxamide], the “Ratio of Jak2/Btk IC50 values” is 2400.

For `Cc1c(-c2c(Cl)cc(C(N)=O)c3[nH]c4cc(C(C)(C)O)ccc4c23)cccc1-n1c(=O)cc2c(F)cccn2c1=O` [Example 34, 3-Chloro-4-(3-(5-fluoro-1,3-dioxo-1H-pyrido[1,2-c]pyrimidin-2(3H)-yl)-2-methylphenyl)-7-(2-hydroxypropan-2-yl)-9H-carbazole-1-carboxamide], the “Ratio of Jak2/Btk IC50 values” turned out to be 440.

As to `Cc1c(-c2c(Cl)cc(C(N)=O)c3[nH]c4cc(C(C)(C)O)ccc4c23)cccc1-n1c(=O)cc2c(F)cccn2c1=O` [Example 35, 3-Chloro-4-(R)-(3-(5-fluoro-1,3-dioxo-1H-pyrido[1,2-c]pyrimidin-2(3H)-yl)-2-methylphenyl)-7-(2-hydroxypropan-2-yl)-9H-carbazole-1-carboxamide], the “Ratio of Jak2/Btk IC50 values” was 3200.

Turning to `Cc1c(-c2c(Cl)cc(C(N)=O)c3[nH]c4cc(C(C)(C)O)ccc4c23)cccc1-n1c(=O)cc2c(F)cccn2c1=O` [Example 36, 3-Chloro-4-(R)-(3-(5-fluoro-1,3-dioxo-1H-pyrido[1,2-c]pyrimidin-2(3H)-yl)-2-methylphenyl)-7-(2-hydroxypropan-2-yl)-9H-carbazole-1-carboxamide], the “Ratio of Jak2/Btk IC50 values” was 1600.

For `Cc1c(-c2c(Cl)cc(C(N)=O)c3[nH]c4cc(C(C)(C)O)ccc4c23)cccc1-n1c(=O)cc2sccn2c1=O` [Example 38, 3-Chloro-4-(R)-(3-(5,7-dioxo-5H-thiazolo[3,2-c]pyrimidin-6(7H)-yl)-2-methylphenyl)-7-(2-hydroxypropan-2-yl)-9H-carbazole-1-carboxamide], the “Ratio of Jak2/Btk IC50 values” was determined as 880.

For the molecule `Cc1c(-c2c(Cl)cc(C(N)=O)c3[nH]c4cc(C(C)(C)O)ccc4c23)cccc1-n1c(=O)cc2sccn2c1=O` [Example 39, 3-Chloro-4-(R)-(3-(5,7-dioxo-5H-thiazolo[3,2-c]pyrimidin-6(7H)-yl)-2-methylphenyl)-7-(2-hydroxypropan-2-yl)-9H-carbazole-1-carboxamide], the “Ratio of Jak2/Btk IC50 values” is 1200.

For `Cc1c(-c2c(F)cc(C(N)=O)c3[nH]c4cc(C(C)(C)O)ccc4c23)cccc1-n1c(=O)cc2c(F)cccn2c1=O` [Example 40, 3-Fluoro-4-(R)-(3-(5-fluoro-1,3-dioxo-1H-pyrido[1,2-c]pyrimidin-2(3H)-yl)-2-methylphenyl)-7-(2-hydroxypropan-2-yl)-9H-carbazole-1-carboxamide], the “Ratio of Jak2/Btk IC50 values” was found to be 1800.

Take `Cc1c(-c2c(F)cc(C(N)=O)c3[nH]c4cc(C(C)(C)O)ccc4c23)cccc1-n1c(=O)cc2c(F)cccn2c1=O` [Example 41, 3-Fluoro-4-(R)-(3-(5-fluoro-1,3-dioxo-1H-pyrido[1,2-c]pyrimidin-2(3H)-yl)-2-methylphenyl)-7-(2-hydroxypropan-2-yl)-9H-carbazole-1-carboxamide]: the “Ratio of Jak2/Btk IC50 values” worked out at 4000.

A further test deals with CD69 expression on B cells in human whole blood. As to the kind of experiment: Whole Blood Assay of BCR-Stimulated CD69 Expression on B Cells. The test is classed as cell-based. The settings on record: B-cell.
`Cc1c(-c2c(Cl)cc(C(N)=O)c3[nH]c4cc(C(C)(C)O)ccc4c23)cccc1-n1c(=O)[nH]c2c(F)cc(F)cc2c1=O` (racemic) [Example 10, 3-Chloro-4-(RS)-(3-(RS)-(6,8-difluoro-2,4-dioxo-1,2-dihydroquinazolin-3(4H)-yl)-2-methylphenyl)-7-(2-hydroxypropan-2-yl)-9H-carbazole-1-carboxamide] returned an IC50 of 110 nM.

For the molecule `[2H]C([2H])([2H])n1c(=O)n(-c2cccc(-c3c(F)cc(C(N)=O)c4[nH]c5cc(C(C)(C)O)ccc5c34)c2C)c(=O)c2cccc(F)c21` (single isomer, unassigned) [Example 52], the IC50 was determined as 25 nM. This IC50 is about 4.4-fold lower than that of the molecule before.

`Cc1c(-c2c(Cl)cc(C(N)=O)c3[nH]c4c(c23)CC[C@H](C(C)(C)O)C4)cccc1-n1c(=O)[nH]c2c(F)cc(F)cc2c1=O` (single isomer, unassigned) [Example 57] gave a 50% inhibitory concentration (IC50) of 54 nM.

`Cc1c(-c2c(F)cc(C(N)=O)c3[nH]c4c(c23)CC[C@H](C(C)(C)O)C4)cccc1-n1c(=O)[nH]c2c(F)cccc2c1=O` (single isomer, unassigned) [Example 59]: the 50% inhibitory concentration (IC50) was determined as 260 nM. This IC50 is about 4.8-fold higher than that of the molecule before.

Take `[2H]C([2H])([2H])n1c(=O)n(-c2cccc(-c3c(F)cc(C(N)=O)c4[nH]c5c(c34)CC[C@H](C(C)(C)O)C5)c2C)c(=O)c2cccc(F)c21` (single isomer, unassigned) [Example 62]: the midpoint of inhibition, the IC50, lay at 74 nM.

For the molecule `Cc1c(-c2c(F)cc(C(N)=O)c3[nH]c4c(c23)CC[C@H](C(C)(C)O)C4)cccc1-n1c(=O)cc2c(Cl)cccn2c1=O` (single isomer, unassigned) [Example 64], the IC50 is 88 nM. This IC50 and that of the molecule before are within 1.5-fold of each other.

Turning to `Cc1c(-c2c(Cl)cc(C(N)=O)c3[nH]c4cc(C(C)(C)O)ccc4c23)cccc1-n1c(=O)c2ccccc2n(C)c1=O` [Example 3, 3-Chloro-7-(2-hydroxypropan-2-yl)-4-(R)-(2-methyl-3-(1-methyl-2,4-dioxo-1,2-dihydroquinazolin-3(4H)-yl)phenyl)-9H-carbazole-1-carboxamide], the half-maximal inhibitory concentration (IC50) is 130 nM.

For `Cc1c(-c2c(Cl)cc(C(N)=O)c3[nH]c4cc(C(C)(C)O)ccc4c23)cccc1-n1c(=O)c2cccc(C)c2n(C)c1=O` [Example 4, 3-Chloro-4-(R)-(3-(1,8-dimethyl-2,4-dioxo-1,2-dihydroquinazolin-3(4H)-yl)-2-methylphenyl)-7-(2-hydroxypropan-2-yl)-9H-carbazole-1-carboxamide], 180 nM corresponded to half-maximal inhibition (IC50).

Take `COc1cccc2c(=O)n(-c3cccc(-c4c(Cl)cc(C(N)=O)c5[nH]c6cc(C(C)(C)O)ccc6c45)c3C)c(=O)n(C)c12` [Example 7, 3-Chloro-7-(2-hydroxypropan-2-yl)-4-(R)-(3-(8-methoxy-1-methyl-2,4-dioxo-1,2-dihydroquinazolin-3(4H)-yl)-2-methylphenyl)-9H-carbazole-1-carboxamide]: half-maximal inhibition (IC50) was put at 130 nM.

In turn, `Cc1c(-c2c(Cl)cc(C(N)=O)c3[nH]c4cc(C(C)(C)O)ccc4c23)cccc1-n1c(=O)c2cc(F)ccc2n(C)c1=O` [Example 8, 3-Chloro-4-(R)-(3-(6-fluoro-1-methyl-2,4-dioxo-1,2-dihydroquinazolin-3(4H)-yl)-2-methylphenyl)-7-(2-hydroxypropan-2-yl)-9H-carbazole-1-carboxamide] came in with an IC50 of 75 nM.

In turn, `Cc1c(-c2c(Cl)cc(C(N)=O)c3[nH]c4cc(C(C)(C)O)ccc4c23)cccc1-n1c(=O)c2ccc(F)cc2n(C)c1=O` [Example 9, 3-Chloro-4-(R)-(3-(7-fluoro-1-methyl-2,4-dioxo-1,2-dihydroquinazolin-3(4H)-yl)-2-methylphenyl)-7-(2-hydroxypropan-2-yl)-9H-carbazole-1-carboxamide] registered an IC50 of 76 nM.

As to `Cc1c(-c2c(Cl)cc(C(N)=O)c3[nH]c4c(c23)CC[C@H](C(C)(C)O)C4)cccc1-n1c(=O)c2cccc(F)c2n(C)c1=O` [Example 25, 6-Chloro-5-(3-(8-fluoro-1-methyl-2,4-dioxo-1,2-dihydroquinazolin-3(4H)-yl)-2-methylphenyl)-2-(S)-(2-hydroxypropan-2-yl)-2,3,4,9-tetrahydro-1H-carbazole-8-carboxamide], the 50% inhibitory concentration (IC50) turned out to be 200 nM.

`Cn1c(=O)n(-c2cccc(-c3c(F)cc(C(N)=O)c4[nH]c5cc(C(C)(C)O)ccc5c34)c2Cl)c(=O)c2cccc(F)c21` [Example 46, 4-(2-Chloro-3-(8-fluoro-1-methyl-2,4-dioxo-1,2-dihydroquinazolin-3(4H)-yl)phenyl)-3-fluoro-7-(2-hydroxypropan-2-yl)-9H-carbazole-1-carboxamide] gave a half-inhibitory concentration (IC50) of 88 nM.

In turn, `CC(C)(O)c1ccc2c(c1)[nH]c1c(C(N)=O)cc(Cl)c(-c3cccc(-n4c(=O)[nH]c5c(F)cccc5c4=O)c3Cl)c12` [Example 47, 3-Chloro-4-(R)-(2-chloro-3-(8-fluoro-2,4-dioxo-1,2-dihydroquinazolin-3(4H)-yl)phenyl)-7-(2-hydroxypropan-2-yl)-9H-carbazole-1-carboxamide] displayed an IC50 of 27 nM. Against the preceding molecule, the IC50 is about 3.3-fold lower.
